Test results as given in patent publication US9125913B2, “Bcl-2-selective apoptosis-inducing agents for the treatment of cancer and immune diseases” (AbbVie Inc., priority 2008, dated 2015).

What follows are compounds tested on GST-Bcl-2 (assay: TR-FRET binding assay, Bcl-2). Settings: TR-FRET Ki values.
Summary of the method: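 Ki values come from Wang's competitive-binding equation applied to TR-FRET signal (excitation 340/35 nm; emission 520/525 nm F-Bak peptide, 495/510 nm Tb antibody). Protein, probe and antibody incubated with compound 3 h at room temperature; dilution series began at 50 μM as 2× stock in 10% DMSO.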
With `CC(C1=C(c2ccc(Cl)cc2)CC(C)(C)CC1)N1CCN(c2ccc(C(=O)NS(=O)(=O)c3ccc(NCCCN4CCOCC4)c([N+](=O)[O-])c3)c(Oc3ccc4[nH]ccc4c3)c2)CC1` (stereo not shown) [EXAMPLE 257, 4-(4-{1-[2-(4-chlorophenyl)-4,4-dimethylcyclohex-1-en-1-yl]ethyl}piperazin-1-yl)-2-(1H-indol-5-yloxy)-N-({4-[(3-morpholin-4-ylpropyl)amino]-3-nitrophenyl}sulfonyl)benzamide] the “Binding selectivity ratio (Bcl-XL Ki/Bcl-2 Ki)” value (“Binding selectivity ratio” below) was 100.2.
`CC(C1=C(c2ccc(Cl)cc2)CC(C)(C)CC1)N1CCN(c2ccc(C(=O)NS(=O)(=O)c3ccc(NC4CCN(C5CCOCC5)CC4)c([N+](=O)[O-])c3)c(Oc3ccc4[nH]ccc4c3)c2)CC1` (stereo not shown) [EXAMPLE 258, 4-(4-{1-[2-(4-chlorophenyl)-4,4-dimethylcyclohex-1-en-1-yl]ethyl}piperazin-1-yl)-2-(1H-indol-5-yloxy)-N-({3-nitro-4-[(1-tetrahydro-2H-pyran-4-ylpiperidin-4-yl)amino]phenyl}sulfonyl)benzamide] was tested, and the “Binding selectivity ratio” value was 86.
`CC1(C)CCC(CN2CCN(c3ccc(C(=O)NS(=O)(=O)c4ccc(NCC5CCCCC5)c([N+](=O)[O-])c4)c(Oc4ccc5[nH]ccc5c4)c3)CC2)=C(c2ccc(Cl)cc2)C1` [EXAMPLE 259, 4-(4-{[2-(4-chlorophenyl)-4,4-dimethylcyclohex-1-en-1-yl]methyl}piperazin-1-yl)-N-({4-[(cyclohexylmethyl)amino]-3-nitrophenyl}sulfonyl)-2-(1H-indol-5-yloxy)benzamide] was tested, and the “Binding selectivity ratio” value was >330.9.
`CC1(C)CCC(CN2CCN(c3ccc(C(=O)NS(=O)(=O)c4ccc(NN5CCOCC5)c([N+](=O)[O-])c4)c(Oc4ccc5[nH]ccc5c4)c3)CC2)=C(c2ccc(Cl)cc2)C1` [EXAMPLE 260, 4-(4-{[2-(4-chlorophenyl)-4,4-dimethylcyclohex-1-en-1-yl]methyl}piperazin-1-yl)-2-(1H-indol-5-yloxy)-N-{[4-(morpholin-4-ylamino)-3-nitrophenyl]sulfonyl}benzamide] was tested, and the “Binding selectivity ratio” value was >607.2.
`CC1(C)CCC(CN2CCN(c3ccc(C(=O)NS(=O)(=O)c4ccc(NN5CCOCC5)c([N+](=O)[O-])c4)c(Oc4cccc5[nH]ccc45)c3)CC2)=C(c2ccc(Cl)cc2)C1` [EXAMPLE 262, 4-(4-{[2-(4-chlorophenyl)-4,4-dimethylcyclohex-1-en-1-yl]methyl}piperazin-1-yl)-2-(1H-indol-4-yloxy)-N-{[4-(morpholin-4-ylamino)-3-nitrophenyl]sulfonyl}benzamide] was tested, and the “Binding selectivity ratio” value was 219.9.
`CC1(C)CCC(CN2CCN(c3ccc(C(=O)NS(=O)(=O)c4ccc(NC5CCOCC5)c([N+](=O)[O-])c4)c(Oc4ccc5[nH]ccc5c4)c3)CC2)=C(c2ccc(Cl)cc2)C1` [EXAMPLE 263, 4-(4-{[2-(4-chlorophenyl)-4,4-dimethylcyclohex-1-en-1-yl]methyl}piperazin-1-yl)-2-(1H-indol-5-yloxy)-N-{[3-nitro-4-(tetrahydro-2H-pyran-4-ylamino)phenyl]sulfonyl}benzamide] was tested, and the “Binding selectivity ratio” value was >2090.0.
With `CC1(C)CCC(CN2CCN(c3ccc(C(=O)NS(=O)(=O)c4ccc(NCC5(C)COC5)c([N+](=O)[O-])c4)c(Oc4ccc5[nH]ccc5c4)c3)CC2)=C(c2ccc(Cl)cc2)C1` [EXAMPLE 264, 4-(4-{[2-(4-chlorophenyl)-4,4-dimethylcyclohex-1-en-1-yl]methyl}piperazin-1-yl)-2-(1H-indol-5-yloxy)-N-[(4-{[(3-methyloxetan-3-yl)methyl]amino}-3-nitrophenyl)sulfonyl]benzamide] the “Binding selectivity ratio” value was >2808.4.
With `COC1CCC(Nc2ccc(S(=O)(=O)NC(=O)c3ccc(N4CCN(CC5=C(c6ccc(Cl)cc6)CC(C)(C)CC5)CC4)cc3Oc3ccc4[nH]ccc4c3)cc2[N+](=O)[O-])CC1` (stereo not shown) [EXAMPLE 265, 4-(4-{[2-(4-chlorophenyl)-4,4-dimethylcyclohex-1-en-1-yl]methyl}piperazin-1-yl)-2-(1H-indol-5-yloxy)-N-({4-[(4-methoxycyclohexyl)amino]-3-nitrophenyl}sulfonyl)benzamide] the “Binding selectivity ratio” value was >388.8.
In the case of `CC1(C)CCC(CN2CCN(c3ccc(C(=O)NS(=O)(=O)c4ccc(NCCCN5CCS(=O)(=O)CC5)c([N+](=O)[O-])c4)c(Oc4ccc5[nH]ccc5c4)c3)CC2)=C(c2ccc(Cl)cc2)C1` [EXAMPLE 266, 4-(4-{[2-(4-chlorophenyl)-4,4-dimethylcyclohex-1-en-1-yl]methyl}piperazin-1-yl)-N-[(4-{[3-(1,1-dioxidothiomorpholin-4-yl)propyl]amino}-3-nitrophenyl)sulfonyl]-2-(1H-indol-5-yloxy)benzamide], the “Binding selectivity ratio” value is reported as >3607.7.
For `CC1(C)CCC(CN2CCN(c3ccc(C(=O)NS(=O)(=O)c4ccc(NCCN5CCCCC5=O)c([N+](=O)[O-])c4)c(Oc4ccc5[nH]ccc5c4)c3)CC2)=C(c2ccc(Cl)cc2)C1` [EXAMPLE 267, 4-(4-{[2-(4-chlorophenyl)-4,4-dimethylcyclohex-1-en-1-yl]methyl}piperazin-1-yl)-2-(1H-indol-5-yloxy)-N-[(3-nitro-4-{[2-(2-oxopiperidin-1-yl)ethyl]amino}phenyl)sulfonyl]benzamide], the “Binding selectivity ratio” value was >1453.3.
`CC1(C)CCC(CN2CCN(c3ccc(C(=O)NS(=O)(=O)c4ccc(NCCN5CCNC5=O)c([N+](=O)[O-])c4)c(Oc4ccc5[nH]ccc5c4)c3)CC2)=C(c2ccc(Cl)cc2)C1` [EXAMPLE 268, 4-(4-{[2-(4-chlorophenyl)-4,4-dimethylcyclohex-1-en-1-yl]methyl}piperazin-1-yl)-2-(1H-indol-5-yloxy)-N-[(3-nitro-4-{[2-(2-oxoimidazolidin-1-yl)ethyl]amino}phenyl)sulfonyl]benzamide] was tested, and the “Binding selectivity ratio” value was 1563.9.
In the case of `CC1(C)CCC(CN2CCN(c3ccc(C(=O)NS(=O)(=O)c4ccc(N5CCOCC5)c([N+](=O)[O-])c4)c(Oc4ccc5[nH]ccc5c4)c3)CC2)=C(c2ccc(Cl)cc2)C1` [EXAMPLE 270, 4-(4-{[2-(4-chlorophenyl)-4,4-dimethylcyclohex-1-en-1-yl]methyl}piperazin-1-yl)-2-(1H-indol-5-yloxy)-N-[(4-morpholin-4-yl-3-nitrophenyl)sulfonyl]benzamide], the “Binding selectivity ratio” value is reported as >199.1.
With `COC1CCN(c2ccc(S(=O)(=O)NC(=O)c3ccc(N4CCN(CC5=C(c6ccc(Cl)cc6)CC(C)(C)CC5)CC4)cc3Oc3ccc4[nH]ccc4c3)cc2[N+](=O)[O-])CC1` [EXAMPLE 271, 4-(4-{[2-(4-chlorophenyl)-4,4-dimethylcyclohex-1-en-1-yl]methyl}piperazin-1-yl)-2-(1H-indol-5-yloxy)-N-{[4-(4-methoxypiperidin-1-yl)-3-nitrophenyl]sulfonyl}benzamide] the “Binding selectivity ratio” value was >107.2.
`O=C(NS(=O)(=O)c1ccc(NCC2CCOCC2)c([N+](=O)[O-])c1)c1ccc(N2CCN(CC3=C(c4ccc(Cl)cc4)CCC(N4CCCC4)C3)CC2)cc1Oc1ccc2[nH]ccc2c1` (stereo not shown) [EXAMPLE 272, 4-(4-{[2-(4-chlorophenyl)-5-pyrrolidin-1-ylcyclohex-1-en-1-yl]methyl}piperazin-1-yl)-2-(1H-indol-5-yloxy)-N-({3-nitro-4-[(tetrahydro-2H-pyran-4-ylmethyl)amino]phenyl}sulfonyl)benzamide] was tested, and the “Binding selectivity ratio” value was >58011.8.
In the case of `CC1(C)CCC(CN2CCN(c3ccc(C(=O)NS(=O)(=O)c4ccc(NCCN5CCNC(=O)C5)c([N+](=O)[O-])c4)c(Oc4ccc5[nH]ccc5c4)c3)CC2)=C(c2ccc(Cl)cc2)C1` [EXAMPLE 273, 4-(4-{[2-(4-chlorophenyl)-4,4-dimethylcyclohex-1-en-1-yl]methyl}piperazin-1-yl)-2-(1H-indol-5-yloxy)-N-[(3-nitro-4-{[2-(3-oxopiperazin-1-yl)ethyl]amino}phenyl)sulfonyl]benzamide], the “Binding selectivity ratio” value is reported as 2396.1.
With `CN(C)CCOc1ccc(-c2ccc(Cl)cc2)c(CN2CCN(c3ccc(C(=O)NS(=O)(=O)c4ccc(NN5CCN(C)CC5)c([N+](=O)[O-])c4)c(Oc4cccc5[nH]ccc45)c3)CC2)c1` [EXAMPLE 274, 4-[4-({4′-chloro-4-[2-(dimethylamino)ethoxy]-1,1′-biphenyl-2-yl}methyl)piperazin-1-yl]-2-(1H-indol-4-yloxy)-N-({4-[(4-methylpiperazin-1-yl)amino]-3-nitrophenyl}sulfonyl)benzamide] the “Binding selectivity ratio” value was 244.6.
In the case of `CC1(C)CCC(CN2CCN(c3ccc(C(=O)NS(=O)(=O)c4ccc(NCC5CCS(=O)(=O)C5)c([N+](=O)[O-])c4)c(Oc4ccc5[nH]ccc5c4)c3)CC2)=C(c2ccc(Cl)cc2)C1` (stereo not shown) [EXAMPLE 275, 4-(4-{[2-(4-chlorophenyl)-4,4-dimethylcyclohex-1-en-1-yl]methyl}piperazin-1-yl)-N-[(4-{[(1,1-dioxidotetrahydrothien-3-yl)methyl]amino}-3-nitrophenyl)sulfonyl]-2-(1H-indol-5-yloxy)benzamide], the “Binding selectivity ratio” value is reported as >6832.4.
`CC1(C)CCC(CN2CCN(c3ccc(C(=O)NS(=O)(=O)c4ccc(NC5CCS(=O)(=O)C5)c([N+](=O)[O-])c4)c(Oc4ccc5[nH]ccc5c4)c3)CC2)=C(c2ccc(Cl)cc2)C1` (stereo not shown) [EXAMPLE 276, 4-(4-{[2-(4-chlorophenyl)-4,4-dimethylcyclohex-1-en-1-yl]methyl}piperazin-1-yl)-N-({4-[(1,1-dioxidotetrahydrothien-3-yl)amino]-3-nitrophenyl}sulfonyl)-2-(1H-indol-5-yloxy)benzamide] was tested, and the “Binding selectivity ratio” value was 2650.8.
With `CC1(C)CCC(CN2CCN(c3ccc(C(=O)NS(=O)(=O)c4ccc(NCC5CCOCC5)c(C(F)(F)F)c4)c(Oc4ccc5[nH]ccc5c4)c3)CC2)=C(c2ccc(Cl)cc2)C1` [EXAMPLE 277, 4-(4-{[2-(4-chlorophenyl)-4,4-dimethylcyclohex-1-en-1-yl]methyl}piperazin-1-yl)-2-(1H-indol-5-yloxy)-N-{[4-[(tetrahydro-2H-pyran-4-ylmethyl)amino]-3-(trifluoromethyl)phenyl]sulfonyl}benzamide] the “Binding selectivity ratio” value was >22.2.
